Reference: patent publication US5393923A, “3,5-di-t-butyl-4-hydroxyphenylmethylhydroxylamines and their derivatives, pharmaceutical compositions, and methods of use therefor” (Warner-Lambert Company, priority 1993, dated 1995)

Key:
[1] = target: T1, 5-lipoxygenase (Rattus norvegicus, UniProt P12527); test: ARBL whole cell 5-lipoxygenase assay (LTB4 formation, RBL-1 cells); format: cell-based; conditions: 50% inhibition of LTB4 formation
T1 construct: host or cells: RBL-1
T1 sequence (P12527 1-673): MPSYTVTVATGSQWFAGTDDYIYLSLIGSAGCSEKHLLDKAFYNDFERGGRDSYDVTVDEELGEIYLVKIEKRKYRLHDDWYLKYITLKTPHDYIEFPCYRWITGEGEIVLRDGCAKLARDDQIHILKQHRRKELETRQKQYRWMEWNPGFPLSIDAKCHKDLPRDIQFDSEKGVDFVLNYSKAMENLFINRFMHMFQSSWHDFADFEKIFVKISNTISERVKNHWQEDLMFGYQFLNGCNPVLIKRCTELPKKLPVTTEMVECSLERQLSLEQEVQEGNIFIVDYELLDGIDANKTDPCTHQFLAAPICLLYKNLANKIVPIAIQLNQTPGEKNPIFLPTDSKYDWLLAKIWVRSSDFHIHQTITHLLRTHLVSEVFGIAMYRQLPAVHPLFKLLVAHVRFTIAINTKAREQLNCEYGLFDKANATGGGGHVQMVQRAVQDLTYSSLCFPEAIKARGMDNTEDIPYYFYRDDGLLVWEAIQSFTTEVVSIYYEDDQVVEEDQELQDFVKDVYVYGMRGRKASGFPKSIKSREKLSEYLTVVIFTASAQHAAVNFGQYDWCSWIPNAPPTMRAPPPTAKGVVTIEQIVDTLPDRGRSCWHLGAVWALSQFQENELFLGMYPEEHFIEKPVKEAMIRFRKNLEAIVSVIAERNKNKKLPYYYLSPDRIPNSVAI
Protocol: (§1) ARBL/ARBC WHOLE CELL 5-LIPOXYGENASE AND CYCLOOXYGENASE ASSAYS The rat basophilic leukemia cell line (RBL-1) was obtained from the American Type Culture Collection (Rockville, Md.). Radioimmunoassay (RIA) kits of LTB4 and PGF2α were obtained from Amersham (Arlington Heights, Ill.) and Seragen (Boston, Mass.), respectively. RBL-1 cells are grown in suspension culture in Eagle's minimum essential medium supplemented with 12% fetal bovine serum at 37° C. in an incubator supplied with air-5% carbon dioxide. Cells are harvested by centrifugation. They are washed with cold phosphate-buffered saline, pH 7.4 (PBS; NaCl, 7.1 g; Na2 HPO4, 1.15 g; KH2 PO4, 0.2 g; and KCl, 0.2 g/L). Cells are finally suspended in PBS containing 1.0 mM calcium at a density of 2×10^6 cells/mL. Cells are incubated […] test agent (in DMSO) (1% DMSO is without effect on arachidonic acid metabolism) for 10 minutes at room temperature. Calcium ionophore A23187 (5 μM) is added and cells are incubated for 7 minutes at 37° C. The reaction is stopped by chilling the tubes on ice for 10 minutes. Cells are separated by centrifugation and the supernatant is stored at -20° C. Aliquots (100 μL) are analyzed for LTB4 and PGF2α using radioimmunoassay kits as provided by the supplier. Table 1 contains biochemical data for compounds of Formula I obtained from this whole cell assay as amount of inhibition at given μM or IC50 s which are calculated as the concentration of a test compound in micromoles (μM) causing 50% inhibition of LTB4 or PGF2αformation.

[2] = target: T2, cyclooxygenase (Rattus norvegicus, UniProt Q63921); test: ARBC whole cell cyclooxygenase assay (PGF2α formation, RBL-1 cells); format: cell-based
T2 construct: host or cells: RBL-1
T2 sequence (Q63921 27-602): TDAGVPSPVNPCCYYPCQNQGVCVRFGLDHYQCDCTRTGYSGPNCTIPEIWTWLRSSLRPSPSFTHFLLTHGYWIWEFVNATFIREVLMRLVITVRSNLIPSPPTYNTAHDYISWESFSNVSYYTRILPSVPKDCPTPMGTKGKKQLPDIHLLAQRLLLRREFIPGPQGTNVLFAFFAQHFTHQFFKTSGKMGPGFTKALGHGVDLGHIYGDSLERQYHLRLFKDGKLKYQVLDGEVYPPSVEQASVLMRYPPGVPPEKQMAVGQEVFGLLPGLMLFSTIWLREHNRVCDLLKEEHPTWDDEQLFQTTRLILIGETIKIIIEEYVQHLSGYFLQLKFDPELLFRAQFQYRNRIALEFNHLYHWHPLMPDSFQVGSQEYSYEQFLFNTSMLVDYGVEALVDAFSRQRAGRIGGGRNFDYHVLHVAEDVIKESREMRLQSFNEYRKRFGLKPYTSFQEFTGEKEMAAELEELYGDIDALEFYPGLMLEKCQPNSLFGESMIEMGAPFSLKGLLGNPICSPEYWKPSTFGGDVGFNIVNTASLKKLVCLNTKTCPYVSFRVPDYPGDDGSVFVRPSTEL
Protocol: as §1

[3] = system: carrageenan-induced rat foot paw edema; test: Carrageenan-induced rat foot paw edema-2 (CFE-2) assay; format: in vivo; conditions: dosed 1 hour before carrageenan, edema measured 5 hours after, read-out: CFE ID40
Protocol: CARRAGEENAN-INDUCED RAT FOOT PAW EDEMA-2 (CFE-2) ASSAY: PROTOCOL
Carrageenan solution (1% w/v) is prepared by dissolving 100 mg carrageenan (Marine Colloidal Div., Springfield, N.J.) in 10 mL of sterile saline (0.9%) solution (Travenol). The solution is vortexed for 30 to 45 minutes. Animals are dosed with compound 1 hour before carrageenan challenge. Foot paw edema is induced by injecting 0.10 mL of the 1% carrageenan subcutaneously into the plantar portion of the right hind paw of each rat under light anesthesia. Initial foot paw volume is measured immediately following carrageenan challenge using mercury plethysmography (Buxco Electronics). Edema is measured 5 hours after carrageenan. The difference between the 5-hour and the initial paw volume is expressed as delta edema. The delta edema for each test group of animals is used to calculate the percent inhibition of edema achieved by the compound at the test dose compared with the vehicle control group. The ID40 (the dose at which swelling is inhibited by 40%) is calculated by probit analysis for the dose at which 40% inhibition occurs.

[4] = system: Mycobacterium-induced rat footpad edema; test: Mycobacterium-induced rat footpad edema assay (MFE); format: in vivo; conditions: dosed 1 hour before Mycobacterium and on Days 1 and 2, swelling at 72 hours, read-out: MFE ID40
Protocol: MYCOBACTERIUM-INDUCED RAT FOOTPAD EDEMA ASSAY (MFE): PROTOCOL
Mycobacterium butyricum (5 mg/mL) is suspended in paraffin oil by sonication for 10 minutes in an ice bath. Footpad edema is induced on Day 0 by injecting 0.1 mL of the Mycobacterium mixture into the left hindpaw of lightly anesthetized rats. Swelling in the injected hindpaw is determined by mercury plethysmography 72 hours after injection. Groups of rats are treated with test compounds (suspended in 0.5% hydroxypropyl methylcellulose with 0.2% Tween-80) or vehicle 1 hour before Mycobacterium injection and on Days 1 and 2. Inhibition of swelling is determined by comparing the change in hindpaw volume in compound- and vehicle-treated rats. An ID40 (the dose at which swelling is inhibited by 40%) is calculated by probit analysis.

[5] = system: gastric ulcers; test: Gastric ulcerogenicity (UD); format: in vivo, Male outbred Wistar rats; conditions: @ 200 mg/kg; oral, fasted rats, 6 hours; class symbol
Protocol: GASTRIC ULCEROGENICITY (UD): PROTOCOL
Male outbred Wistar rats (100 to 250 g) are fasted for 24 hours. After fasting, test compounds are administered orally (in 2 mL/kg of 0.5% hydroxypropyl methylcellulose) and the rats are denied access to food and water for 6 more hours. The rats are then sacrificed with CO2 so that the stomachs can be removed, opened along the greater curvature, and evaluated for the presence of gastric ulcers. Results are expressed as the percent of rats with gastric ulcers at a given dose or as the UD50 (the dose which causes ulcers in 50% of the rats).

Row | Structure (SMILES) | IC50 [1] [µM] | ARBC inhibition of PGF2α at given concentration ([2]; @ 16 μM, A23187) | ED40 [3] [mg/kg] | IC50 ([2]; 50% inhibition of PGF2α formation) [µM] | ED40 [4] [mg/kg] | UD50 [5]
1 | CC(=O)N(O)C(c1ccccc1)c1cc(C(C)(C)C)c(O)c(C(C)(C)C)c1 (centres unmarked) [Example 22, N-[[3,5-Bis(1,1-dimethylethyl)-4-hydroxyphenyl]-phenylmethyl]-N-hydroxyacetamide] | 4.8 | 42/75 | > 30 |  |  | 
2 | CC(C)(C)c1cc(C(NO)c2ccccc2)cc(C(C)(C)C)c1O (centres unmarked) [Example 20] | 2.3 |  | 13.2 | 4.1 | 3.8 | N (N = less than 40% inhibition at given concentration)
